Data on 17 compounds can be found in patent US20140127136A1, “LIPOSOMES USEFUL FOR DRUG DELIVERY TO THE BRAIN” (Merrimack Pharmaceuticals, Inc., priority 2004, published 2014).

Counter-ions that a name gives are not always drawn.

The conditions of series [1]: cited from earlier work; for pKa: aqueous solution, ambient temperature, conjugated amine base, value (I) where two are given.
Series [2] has as its system subcutaneous xenograft tumors of BT-474 human breast carcinoma. As to the kind of experiment: Antitumor efficacy of non-targeted and HER2-targeted liposomal vincristine. The settings on record: 2 mg VCR/kg weekly i.v. for three weeks. In kind it is in vivo, nude mice.
The test system of series [3] is MCF-7 human breast cancer cells with low EGFR expression. Kind of series: Cytotoxicity of free, liposomal and anti-EGFR-immunoliposomal 6-APE. In kind it is cell-based. The settings on record: 6 hours exposure, 3 days post-incubation.
The subject of series [4] is HER2-overexpressing human breast carcinoma cells (BT-474). Kind of series: MTT cytotoxicity of 6-APE formulations. The settings on record: 6 hours exposure, 3 days post-incubation.
Series [5] has as its system MDA-MB-468 EGFR-overexpressing human breast cancer cells. As to the kind of experiment: Cytotoxicity of free, liposomal and anti-EGFR-immunoliposomal 6-APE. The series is classed as cell-based. The settings on record: 6 hours exposure, 3 days post-incubation.
Series [6] can be described thus: Animal body weights in the BT-474 Topotecan MTD-fraction study. The series is classed as in vivo, nude mice. The note with it: at MTD, i.v. at day 19, 23, 27. The source says:
The control group received injections of physiological saline. […] There was no significant difference in efficacy between free and liposomal drug given at their respective MTD or at identical fractions (½, ¼, or ⅛) thereof.

The nature of series [7]: Stability and plasma pharmacokinetics of liposomal and F5-immunoliposomal Topotecan in mice. In kind it is in vivo, Swiss Webster mice. The settings on record: mouse plasma, 1 hour post i.v. injection, 5 mg/kg. As to the method: Topotecan liposomes containing radioactive lipid label [^3H]-CHE at 1.5 mCi/mmol of phospholipid were prepared according to Examples 11 and 19 using an ethanol lipid solution mixing-extrusion procedure under the following conditions: gradient-forming salt solution: 0.643 N triethylammonium sucrose octasulfate; polycarbonate membrane extrusion: 15 passages through 2 stacked PCTE filters, 80 nm pore size; Topotecan loading: drug/phospholipid input ratio 350 mg/mmol (calculated for Topotecan free base); F5 scFv conjugation was performed as described in Example 19. The liposomes had the following characteristics:
The study was performed generally as in Example 22. […] At 1 hour, 8 hour, or 24 hour post injection time points, 3 animals per time point were exsanguinated via open heart punction under Ketamine/Xylazine anesthesia, the blood was collected into tubes containing PBS-EDTA, and assayed for Topotecan (fluorometry) and liposome lipid (by radioactivity scintillation counting). […] The amount of drug remaining encapsulated in the liposomes at each time point was calculated for each animal individually by comparing drug/lipid radioactivity ratio of the plasma samples with that of the injected liposomes. […]

Series [8] deals with U87MG intracranial glioblastoma xenograft. Kind of series: Therapeutic efficacy of liposomal topotecan by CED against intracranial glioma xenografts. The series is classed as in vivo, athymic rats. The note with it: CED 20 μl, 0.5 mg/ml, 7 days after tumor implantation. As to the method:
Twenty one athymic rats received the implantation of U87MG tumor cells (5×10^5 cells/10 μl HBSS) into their right striatum and were divided randomly into three groups. Under deep isofluorane anesthesia, rats were placed in a small-animal stereotaxic frame (David Kopf Instruments, Tujunga, Calif.). […] After 2 min, another 5 μl was injected at a depth of 4 mm. After an additional 2 min, the needle was removed and the wound was closed with sutures.
All control rats and rats treated with free TPT developed neurological symptoms around day 17-26 due to large intracranial tumors that were confirmed by histology.
To evaluate the treatment of larger tumors, the U87MG intracranial model was developed in 12 rats. However, in this experiment CED was performed 12 days after tumor implantation (FIG. 48B). […] Therefore, to achieve proper coverage of the tumor, there is the need for guided and image-monitored administration of the liposomal drug.

Series [9] is described as follows: in vivo. The note with it: Sprague-Dawley, rat, brain, other: CED infusion into the brain, 0.01 mg.
Series [10] in a line: Brain tissue pharmacokinetics of free and liposomal topotecan delivered by CED.
The subject of series [11] is SKBr-3 cells. As to the kind of experiment: MTT cytotoxicity of Topotecan formulations (TEA-Pn). The series is classed as cell-based. The settings on record: Homo sapiens, SK-BR-3, read-out: IC50 (drug dose resulting in 50% growth inhibition), 4-6 hours exposure, 4 days post-incubation.
The nature of series [12]: Maximum tolerated dose of free and liposomal Topotecan, 3 weekly i.v. injections. The settings on record: female, Swiss-Webster, mouse, in vivo, iv.
Series [13] can be described thus: LD50 of triethylammonium sulfate compared with doxorubicin. The settings on record: in vivo.
Series [14] relates to HT-29 human colon carcinoma xenografts. The note with it: 5 mg/kg i.v. every three days, four injections.
Series [15] concerns HER2-overexpressing human non-small cell lung carcinoma cells CaLu-3. The settings on record: MTT.
Description: The cells were grown in RPMI-1460 medium with 10% fetal calf serum in the presence of 5% CO2.
The mark [16] stands for this setting: rat brain tissue, CED 20 μl, 0.5 mg/ml.

Consider `c1c[nH]cn1` [imidazole], for which, in [1], the pKa (as a rule, the negative logarithm of the acid dissociation constant) is recorded as 7.03.
Regarding `CC[C@]1(O)C[C@H]2CN(CCc3c([nH]c4ccccc34)[C@@](C(=O)OC)(c3cc4c(cc3OC)N(C=O)[C@H]3[C@@](O)(C(=O)OC)[C@H](OC(C)=O)[C@]5(CC)C=CCN6CC[C@]43[C@@H]65)C2)C1` [free VCR, vincristine sulfate], the comparative efficacy result in series [2] is given as “less effective than either F5-ILs-VCR or Ls-VCR-Cit”.
Consider `OCCN1CCCC1` [N-hyrdoxyethylpyrrolidine], for which, in series [1], the pKa is 9.44.
As for `CN1CCN(C)CC1` [N,N′-dimethylpiperazine], the pKa in series [1] is given as 9.66. Also, the “pKa (II)” value in series [1] (second ammonium group) is recorded as 5.2.
Turning to 6-(3-aminopropyl)ellipticine [free APE], the IC50 entry in series [3] is recorded as “about 0.5 μg/ml”; in [4], 0.26 μg APE/ml; in [5] it was “about 0.1 μg/ml”.
As for `CC[C@@]1(O)C(=O)OCc2c1cc1n(c2=O)Cc2cc3c(CN(C)C)c(O)ccc3nc2-1` [free Topotecan, Topotecan Hydrochloride], the “transient decrease in body weight, % of the pre-treatment value” in series [6] is listed as “about 15%”. For the same compound, in series [7], the “Drug, % of injected dose” value is “less than 1%”. In addition, in [8], the “survival / anti-tumor effect” value is given as “no survival benefits”. Moreover, in series [9], the MRT (in general, the average time that molecules of a dose stay in the body) was 2.4 h and the half-life (as a rule, the time in which the quantity being followed falls by half) is 2.4 h. Moreover, in [10] (setting [16]), the “AUC∞” value was determined as 2.8 µg·days/g and the “CL” value was determined as 3.6 g/day. Also, the “persistence in brain tissue post CED (detected as long as / completely cleared within)” value in [10] (rat brain, CED) is recorded as not above 1 days. Also, in series [11], the IC50 was more than 30 µg/mL. In series [12], the MTD (commonly the largest dose that counted as tolerated) at 3 once-a-week injections is 18.4 mg/kg and the MTD at 10 days lay in the range of 11.7 to 21 mg/kg.
For the compound `CC(C)N` [Isopropylamine], in [1], the pKa was 10.53.
`CC(C)(N)CO` [2-amino-2-methylpropanol]: the pKa in [1] was 9.69.
With `CCCN(C)C` [dimethylpropylamine], the pKa in [1] is given as 10.15.
On to triethylammonium sulfate, for which, in [13], the “LD50 relative to the LD50 of doxorubicin” value is “about 40 times”.
With `CN1CCCCC1` [N-methylpiperidine], the pKa in [1] is 10.38.
Take `CCC1=C[C@@H]2CN(C1)Cc1c([nH]c3ccccc13)[C@@](C(=O)OC)(c1cc3c(cc1OC)N(C)[C@H]1[C@@](O)(C(=O)OC)[C@H](OC(C)=O)[C@]4(CC)C=CCN5CC[C@]31[C@@H]54)C2.O=C(O)C(O)C(O)C(=O)O.O=C(O)C(O)C(O)C(=O)O` [free VRB, vinorelbine bitartrate]: the “effect on tumor growth” value in series [14] was “the tumors always continued to grow”. The compound further showed an IC50 in series [15] of 1.2 µg/mL.
Turning to `NC1CCCCC1` [cyclohexylamine], the pKa in series [1] is 10.66.
As to `CCN(C)CC` [diethylmethylamine], the pKa in series [1] is 10.35.
In the case of `CC(C)(C)N` [tert-butylamine], the pKa in series [1] was 10.68.
For `OCCN1CCOCC1` [N-hydroxyethylmorpholine], the pKa in series [1] is on record as 7.39.
Consider `C1CCC(NC2CCCCC2)CC1` [dicyclohexylamine], for which, in series [1], the pKa is listed as 10.4.
